Laboratory results reported in publication PMC5607274, “An iterative compound screening contest method for identifying target protein inhibitors using the tyrosine-protein kinase Yes” (Scientific Reports, 2017).

target: T1, human recombinant Yes [a.a. 2–543 (end)] (Homo sapiens, UniProt P07947); experiment: ADP-Glo kinase assay, inhibition rates of Yes phosphorylation activity (first and second screening); format: biochemical; conditions: first screening; mean of n = 4 wells; 10 μmol L−1 compound
T1 construct: human recombinant Yes [a.a; 2–543 (end)]; purchased BPS Bioscience 40488
How it was run: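 Hits from a first pass were rescreened after re-dissolution from fresh powder. The first pass reported the mean inhibition rate of quadruplicate wells per compound. Activity was that of recombinant human Yes [a.a. 2–543] kinase, read out with the ADP-Glo ADP-detection method.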

T1 sequence (P07947 2-543): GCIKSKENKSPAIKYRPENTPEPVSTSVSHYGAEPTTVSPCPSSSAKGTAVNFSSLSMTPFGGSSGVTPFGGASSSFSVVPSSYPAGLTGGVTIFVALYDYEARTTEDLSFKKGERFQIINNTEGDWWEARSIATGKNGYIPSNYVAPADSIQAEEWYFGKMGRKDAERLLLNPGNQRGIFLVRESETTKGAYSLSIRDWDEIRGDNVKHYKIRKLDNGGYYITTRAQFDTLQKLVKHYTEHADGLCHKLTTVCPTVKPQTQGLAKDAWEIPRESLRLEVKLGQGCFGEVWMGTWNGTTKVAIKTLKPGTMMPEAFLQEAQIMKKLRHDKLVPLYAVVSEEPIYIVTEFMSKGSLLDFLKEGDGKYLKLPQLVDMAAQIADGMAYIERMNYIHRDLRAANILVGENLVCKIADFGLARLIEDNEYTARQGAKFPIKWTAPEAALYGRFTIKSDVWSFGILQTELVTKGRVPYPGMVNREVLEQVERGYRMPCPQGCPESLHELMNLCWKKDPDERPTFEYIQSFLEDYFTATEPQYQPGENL

SMILES | First screening IR (inhibition rate) [%]
Cc1ccc(-c2nn3c(=O)c4c(C)c(C)sc4nc3c3ccccc23)cc1 [Compound Z55164044] | -6
Cc1nn(CCc2nc(-c3ccco3)cs2)c2nc(-c3cccs3)cc(C(F)(F)F)c12 [Compound Z55404718] | 38
Cc1nn(-c2ccccc2)c2nc(-c3ccccc3)cc(C(F)(F)F)c12 [Compound Z55426459] | -6
Cc1nn(CCC#N)c2nc(-c3cccnc3)cc(C(F)(F)F)c12 [Compound Z55426831] | -2
Cc1nn(CCC#N)c2nc(-c3ccccc3)cc(C(F)(F)F)c12 [Compound Z55426833] | -11
CC1=Nc2nc(N3CCCCC3)c(C#N)c3c4c(nc(c23)N1)N(c1ccc(C)cc1)C(=O)C4 [Compound Z55516559] | -13
O=C(O)c1ccc2nc3c(nc2c1)-c1cccc2cccc-3c12 [Compound Z55723243] | 15
Cc1ccc(-c2cc(C(=O)O)c3c(C)nn(-c4ccc(C)cc4C)c3n2)cc1 [Compound Z55871149] | 40
Cc1nn(CCC#N)c2nc(-c3ccc(Br)cc3)cc(C(F)(F)F)c12 [Compound Z55874673] | -4
Cc1ccc(S(=O)(=O)NC(=O)c2cc(C)n(CCCn3ccnc3)c2C)cc1 [Compound Z55892329] | -11
Cc1cc(C)c(C)c(S(=O)(=O)Nc2ccccc2C(=O)N2CCN(c3cccc(C(F)(F)F)c3)CC2)c1C [Compound Z56576419] | 21
CCc1cccc(OCC(=O)C(C#N)c2nc3ccccc3[nH]2)c1 (stereo not shown) [Compound Z56595958] | 2
CCOC(=O)c1cc(-c2ccc3c(c2)OCCO3)nc2c1c(C)nn2CCC#N [Compound Z56631515] | 17
CC(C)n1ncc2c(C(=O)O)cc(-c3ccccc3F)nc21 [Compound Z56643534] | -8
CC(C)c1noc2nc(-c3ccncc3)cc(C(=O)O)c12 [Compound Z56646434] | -2
CCn1ncc2c(C(=O)O)cc(-c3ccccc3)nc21 [Compound Z56648330] | -43
Cc1ccc(S(=O)(=O)C2CS(=O)(=O)CC2O)cc1 (stereo not shown) [Compound Z56757815] | -3
O=S1(=O)CC(S(=O)(=O)c2ccccc2)C(S(=O)(=O)c2ccccc2)C1 (stereo not shown) [Compound Z56757817] | 15
O=C(O)/C=C/c1cccc(NS(=O)(=O)/C=C/c2ccccc2)c1 [Compound Z56757962] | 1
CS(=O)(=O)C1(S(C)(=O)=O)CCCCC1 [Compound Z56758188] | 14
O=S(=O)(c1ccc(Cl)cc1)C1(S(=O)(=O)c2ccc(Cl)cc2)CCCC1 [Compound Z56759577] | -18
N#CC(C#N)=CC1=C2OC(c3ccccc3)=CC(c3ccccc3)=C2CCC1 [Compound Z56760799] | 14
O=S1(=O)C=CCC1 [Compound Z56764769] | 9

SMILES | First screening IR (inhibition rate) [%]
Nc1ncnc(Nc2ccccc2)n1 [Compound Z56768427] | 16
CCN(CC)c1ccc(/C=C2\CCC(/C=N/NC(=O)NC3CCCCC3)=C2N2CCOCC2)cc1 [Compound Z56769590] | -9
Nc1c2c(nc3sc4c(c13)CCCC4)-c1ccccc1CC2 [Compound Z56772171] | -17
O=P(/C=C(\Cl)c1ccccc1)(/C=C(/Cl)c1ccccc1)Nc1cccc(S(=O)(=O)NCc2ccco2)c1 [Compound Z56773378] | -1
CCOC(=O)/C(C#N)=C\C1=C2OC(c3ccccc3)=CC(c3ccccc3)=C2CCC1 [Compound Z56780975] | -7
COC(=O)/C(=C\C1=C2OC(c3ccccc3)=CC(c3ccccc3)=C2CCC1)C(C)=O [Compound Z56781644] | 7
Brc1ccc(/C=C2/CCCc3c2nc2ncnn2c3-c2ccc(Br)cc2)cc1 [Compound Z56784274] | 3
CCOC(=O)c1c(NC(=O)c2ccc(C(C)(C)C)cc2)n(CCCN2CCOCC2)c2nc3ccccc3nc12 [Compound Z56786201] | 4
Nc1ncnc(Nc2ccc(Br)cc2)n1 [Compound Z56786772] | 24
CCN(CC)c1ccc(C(=O)NC(=S)Nc2nc(-c3cccs3)cs2)cc1 [Compound Z56787522] | -9
Cc1ccc(-n2c(C)c(C=O)c3c2CCc2cn(-c4ccccc4)nc2-3)cc1 [Compound Z56788048] | -7
Cc1cc(C(=O)/C(C#N)=C2\C(=O)Nc3c(Cl)cc(Cl)cc32)c(C)n1-c1cccc(C(F)(F)F)c1 [Compound Z56789382] | -23
CCOC(=O)c1c(N)n(CC(C)NC(=O)C2CC2)c2nc3ccccc3nc12 (stereo not shown) [Compound Z56790662] | -2
Cc1cc(/C=N/Nc2nc(-c3ccc(F)cc3)cs2)c(C)n1-c1cc(Cl)ccc1Cl [Compound Z56791351] | -8
Cc1ccccc1Nc1ncnc(N)n1 [Compound Z56791580] | 15
Cc1cccc(C)c1OCc1nc2c3c(-c4ccccc4)c(-c4ccccc4)oc3ncn2n1 [Compound Z56793398] | 20
c1ccc(-c2nc3c4ccccc4c4ccccc4c3n2-c2ccccc2)cc1 [Compound Z56798059] | 6
Clc1ccccc1/C=C1\CCCc2c1nc1ncnn1c2-c1ccccc1Cl [Compound Z56799005] | 6
COc1ccccc1Nc1ncnc(N)n1 [Compound Z56799636] | -3
CCc1cccc(CC)c1NC(=O)COC(=O)CC1c2ccccc2CCN1S(=O)(=O)c1ccc(F)cc1 (stereo not shown) [Compound Z56803956] | 27
O=C(Nc1cc(C(F)(F)F)ccc1N1CCCCC1)c1ccc(Cl)c(S(=O)(=O)Nc2ccccc2C(=O)Nc2cc(C(F)(F)F)ccc2N2CCCCC2)c1 [Compound Z56805970] | 44
CN(C1CCS(=O)(=O)C1)S(=O)(=O)c1ccc(F)cc1 (stereo not shown) [Compound Z56813369] | -5
O=C(Nc1ccc(C2(c3ccc(NC(=O)c4ccc(N5CCCCCC5)c([N+](=O)[O-])c4)cc3)CCCCC2)cc1)c1ccc(N2CCCCCC2)c([N+](=O)[O-])c1 [Compound Z56818449] | -7

Continued, values first:

First screening IR (inhibition rate) [%] | SMILES
4 | Cc1ccc(-c2nn3c(=O)c4c5c(sc4nc3c3ccccc23)CCCC5)cc1 [Compound Z55163996]
24 | Cc1ccc(-c2nn3c(=O)c4c(-c5cccs5)csc4nc3c3ccccc23)cc1 [Compound Z55164116]
15 | Cc1ccc(N2C(=O)Cc3c2nc(N)c2c(N)nc(N4CCCC4)c(C#N)c32)cc1C [Compound Z55589600]
6 | CC(C)c1ccc(N2C(=O)Cc3c2nc(N)c2c(N)nc(N4CCCC4)c(C#N)c32)cc1 [Compound Z55589601]
1 | Cc1nn(CCc2nn[nH]n2)c2nc(-c3ccccc3)cc(C(F)(F)F)c12 [Compound Z55874741]
-7 | CCOC(=O)c1cc(-c2ccc(C#N)cc2)nc2c1c(C)nn2CCC#N [Compound Z56631499]
9 | COc1ccc(-c2cc(C(=O)O)c3cnn(C(C)C)c3n2)cc1OC [Compound Z56643618]
2 | CC(C)n1ncc2c(C(=O)O)cc(-c3ccc4c(c3)OCCO4)nc21 [Compound Z56643642]
8 | Cc1ccccc1-c1cc(C(=O)O)c2cnn(C(C)C)c2n1 [Compound Z56643722]
-15 | CS(=O)(=O)NS(=O)(=O)CCCCCl [Compound Z56755807]
-9 | CCCCS(=O)(=O)C1CCS(=O)(=O)C1 (stereo not shown) [Compound Z56757812]
4 | Cc1cc(-c2ccccc2)cc2c3ccccc3c3ccccc3[n+]12.[O-][Cl+3]([O-])([O-])[O-] [Compound Z56761787]
3 | O=S1(=O)C=CC(Br)C1 (stereo not shown) [Compound Z56764753]
-6 | O=c1c2ccc3c(=O)n4c5cccc6cccc(nc4c4ccc(c2c34)c2nc3ccccc3n12)c65 [Compound Z56768422]
8 | CCN(CC)CCC1S(=O)(=O)CC(c2ccccc2)CS1(=O)=O (stereo not shown) [Compound Z56768715]
-2 | CCN(CC)c1ccc2c(c1)OC(=O)N(c1ccc(Cl)c(Cl)c1)P2(=Nc1ccc(C)cc1)N(CC)CC (stereo not shown) [Compound Z56783141]
8 | Fc1ccc(/C=C2/CCCc3c2nc2ncnn2c3-c2ccc(F)cc2)cc1 [Compound Z56784264]
0 | C(=C1\CCCc2c1nc1ncnn1c2-c1ccccc1)/c1ccccc1 [Compound Z56784273]
-10 | Clc1ccc(/C=C2/CCCc3c2nc2ncnn2c3-c2ccc(Cl)cc2)cc1 [Compound Z56784275]
3 | Cc1ccc2c(c1)/C(=N/n1cnc3ccccc31)C(=O)N2 [Compound Z56789395]
6 | CC(C)(C)c1cc(-n2c(-c3cccnc3)nc3cc4c(cc32)OCCO4)cc(C(C)(C)C)c1O [Compound Z56793119]
13 | Clc1ccc(/C=N/Nc2ncnc3c2cnn3-c2ccccc2)cc1 [Compound Z56795594]
3 | Clc1ccc(/C=C2/CCCc3c2nc2ncnn2c3-c2ccc(Cl)cc2Cl)c(Cl)c1 [Compound Z56798990]

same assay, conditions: second screening, dissolved from fresh powder; n = 4; 10 μmol L−1 compound

Second screening IR (inhibition rate) [%] | SMILES
-10 | O=C(Nc1cc(C(F)(F)F)ccc1N1CCCCC1)c1ccc(Cl)c(S(=O)(=O)Nc2ccccc2C(=O)Nc2cc(C(F)(F)F)ccc2N2CCCCC2)c1 [Compound Z56805970]
